Measurements taken from US20260256790A1, “DEBIO-0123 IN COMBINATION WITH TEMOZOLOMIDE AND RADIOTHERAPY FOR USE IN TREATING GLIOMA” (Debiopharm International S.A., priority 2023, published 2026).
Where “and” joins values, the source holds several entries; their conditions need not be identical. Identical values can stand only once. Like-named read-outs stand apart in the source and are kept apart here.

Columns and labels:
[1] = Plasma and brain concentrations (PK) in healthy mice after oral dosing; type: in vivo, Nu/Nu mice; conditions: for Kp at 72 h: brain/plasma
Experimental: Healthy male Nu/Nu mice were treated orally with either (i) a single dose of 30 mg/kg Compound of formula (I) ([…], 3 mice per time-point), (ii) 30 mg/kg of Compound of formula (I) given once a day for four consecutive days (27 mice in total, 3 mice per time-point), (iii) 30 mg/kg of AZD-1775 (adavosertib, purchased from Combi-Blocks, San Diego, USA) given twice a day for three consecutive days and once on day four (27 mice in total, 3 mice per time-point), (iv) or 80 mg/kg of Zn-c3 (purchased from EOS Med Chem, Jina City, China) given once a day for four consecutive days (27 mice in total, 3 mice per time-point). The doses used for each compound have previously been reported as active dose levels. Compound of formula (I) was formulated as a suspension in 0.5% methylcellulose with 1% Tween 80 and administered at a concentration of 3.0 mg/mL. […] The dosing volume of all formulations was 10 mL/kg. At designated time-points the mice were euthanized by carbon dioxide inhalation, blood samples were collected by cardiac puncture into K2EDTA containing tubes. The tubes were inverted several times, placed on ice and centrifuged within 30 min of collection (4° C. for 5 min at 6000 rpm) to obtain plasma. The plasma samples were snap frozen in dry ice and stored at −80° C. until analysis. The brain was collected, weighed and snap frozen in dry ice until further analysis. To obtain brain homogenates, firstly water was added to each brain (brain weight:water volume=1:4) then the brain was homogenized with a H-speed dispersator (time procedure: homogenizing for 10 s and interval of 10 s per time, total 3-5 times; cleaning procedure for dispersator: Water-Methanol-Ethanol-Water, 10 s each). The brain homogenate samples were transferred to individual tubes and stored at −80° C. prior to analysis. The mouse plasma and brain samples were analysed as follows. For each analytical batch of plasma and brain samples, the standard and quality control (QC) samples were freshly prepared in blank male Nu/Nu mouse plasma (with K2EDTA anticoagulant) and brain homogenate. To an aliquot of each standard, QC, control blank and study samples, internal standard (^13CD6-Compound of formula (I) for Compound of formula (I), terfenadine for AZD-1775 and Zn-c3) in methanol/acetonitrile (1:1, v/v) was added. The samples were mixed for 1 minute and centrifuged at 4000 rpm at 4° C. for 15 minutes. Supernatants were transferred and diluted in MeOH/water (1:1, v/v, with 0.1% FA) prior to LC-MS/MS injection. Chromatographic separation was achieved on an Shimadzu LC-20AD using a Kinetex 2.6μ C18 100A column (50 mm*3.00 mm) for Compound of formula (I) and AZD-1775 samples and a ACE 5 C4 column (50 mm*2.1 mm) for Zn-c3 samples with gradient elution using the following conditions: flow rate: 0.7 mL/min; run time: 3.0 min; mobile phase: A: 5 mM NH4OAc (0.1% FA), B: Acetonitrile (0.1% FA). Detection was accomplished with an AB Sciex 5500 utilizing electrospray MS/MS in positive ion multiple reaction monitoring mode (MRM). The MRM channels were 511.29/98 for Compound of formula (I), 501.47/442.20 for AZD-1775 and 527.36/468.10 for Zn-c3. The MRM channels of internal standard were 518.17/102.10 (^13CD6-Compound of formula (I)) for Compound of formula (I), 472.40/436.40 (terfenadine) for AZD-1775 and Zn-c3. The measured plasma and brain concentrations at each time-point, the nominal sample collection time, and intended dosages were used for pharmacokinetic analysis. The PK parameters of all study compounds were determined by non-compartmental analysis using WinNonlin Version 8.0 (Pharsight).

[2] = Drug concentration in monkey brain and plasma after daily oral administration for 91 days; type: in vivo, cynomolgus monkeys; conditions: 10 mg/kg oral once a day for 91 days
Experimental: Compound of formula (I) was orally given to 3 female cynomolgus monkeys by gavage once a day for 91 days. The volume of administration was 5 mL/kg, and the vehicle was an aqueous solution of 0.5% (w/v) methylcellulose (cps 400) and 1% (w/v) Tween 80. The Compound of formula (I) dose was 10 mg/kg; this dose level was assessed in this study to be the […] no adverse effect level (NOAEL) based on general toxicology evaluation. The animals were necropsied 24 hours after the last dose after an overnight period without food. A sample from brain tissue (left forebrain) was collected from each animal, snap frozen in liquid nitrogen. and stored frozen at <−50° C. Blood samples were taken from the femoral vein into tubes containing K2EDTA, fully inverted approximately 10 times, and placed on crushed wet ice until centrifugation at 2300 g for 10 minutes at approximately 4° C. The resultant plasma was separated, transferred into polypropylene tubes, and frozen at <−50° C. Tissue and plasma samples were transported frozen on dry ice to the respective sites of analysis.
The monkey plasma samples were analyzed for their contents in Compound of formula (I) and N^32-desmethyl-Compound of formula (I) as follows. The plasma samples were fortified in human K2-EDTA plasma (1:9 monkey:human volume ratio) prior to extraction. All solution preparations and dilutions were conducted under sodium vapor light and in “low-binding” quality polypropylene tubes and deep-well plates. The analytes and internal standards (^13CD6-Compound of formula (I) and D7-N^32-desmethyl-Compound of formula (I)) were extracted by protein precipitation with 5M aqueous urea (40 μL for 50 μL plasma), and then analyzed by LC-MS/MS. Chromatographic separation was achieved on an Synergi Polar-RP, 80A, 4 μm 75×2.00 mm column (Phenomenex) with gradient elution using a mixture of 0.1% formic acid in water as eluent A and 0.1% formic acid in acetonitrile as eluent B (5% B from 0 to 0.50 min, 42% B at 4.5 min, 95% B from 4.60 min to 5.50 min, 5% B at 5.60 min, 100% B at 5.70 min, 5% B at 6.40 min, 100% B at 6.50 min, 5% B at 7.00 min; 800 μl/min, 70° C.). Detection was accomplished with a AB Sciex 6500+ mass spectrometer utilizing electrospray MS/MS in positive ion multiple reaction monitoring mode (MRM). The lower limits of quantification for Compound of formula (I) and N^32-desmethyl-Compound of formula (I) were 5.00 ng/mL and 2.50 ng/mL, respectively.
The monkey brain tissue samples were analyzed for their contents in Compound of formula (I) and N^32-desmethyl-Compound of formula (I) as follows. Tissue samples were homogenized in human plasma (1 mg tissue for 10 μL plasma) at +4° C. using a Precelly Evolution system. The analytes (Compound of formula (I) and N^32-desmethyl-Compound of formula (I)) were extracted by protein precipitation with methanol/acetonitrile (9:1, v:v) containing the internal standards (^13CD6-Compound of formula (I) and D7-N^32-desmethyl-Compound of formula (I)) and then analyzed by UHPLC-MS/MS. Chromatographic separation was achieved on a HSS T3 1.8 μm, 2.1×100 mme column (Waters) with gradient elution using a mixture of 0.1% formic acid in water as eluent A, and 0.1% formic acid in acetonitrile as eluent B (20% B from 0 to 0.50 min, 90% B from 1.80 min to 2.30 min, 20% B at 2.60 min; 0.6 mL/min, room temperature). Detection was accomplished with Xevo TQ-S mass spectrometer (Waters) utilizing electrospray MS/MS in positive ion multiple reaction monitoring mode (MRM). The lower limits of quantification for Compound of formula (I) and N^32-desmethyl-Compound of formula (I) were 55.00 ng/g tissue and 22.00 ng/g tissue, respectively.

[3] = CSF and matching plasma concentrations in glioma patients (clinical trial Arms A and B); type: in vivo, human
Experimental: In the clinical trial described in Example 9, cerebrospinal fluid (CSF) stabilized with formic acid 0.5% and matching plasma samples collected on K2 EDTA were drawn from 3 patients of Arm A on day 11 of cycle 1 (i.e. 2 patients at 150 mg and 1 patient at 200 mg of Study drug) and 1 patient of Arm B on Week 3 day 1 (i.e. Day 15 after daily doses of Study drug at 90 mg).
Study drug (parent, active moiety) and its active metabolite N^32-desmethyl-Study drug were measured using LC-MS/MS methods. Results were provided in ng per mL of plasma or CSF, and then converted to nmol/L using the molecular weights of the Study drug (511.45 g/mol) and N^32-desmethyl-Study drug (497.42 g/mol).
(§1) Thus, the unbound (or free fraction) of the Study Drug and the N^32-desmethyl-Study drug are calculated.
In CSF, the total protein concentration varies between 0.2% and 0.5% of the total protein concentration of blood (H. Reiber, Clinica Chimica Acta, 2001; Schilde L M et al., PLoS ONE, 2018), therefore the concentration measured in CSF essentially corresponds to the free fraction of the compounds.
For each of the 4 patients, the ratio CSF/plasma of a given compound (Study drug parent or metabolite) was calculated using the CSF concentration of said compound (in nmol/L) and the unbound or free fraction of said compound in plasma (in nmol/L).

plasma proteins = experiment: Binding to plasma proteins; type: in vitro ADME
Experimental: as §1

[4] = 30 mg/kg, bid for 3 days and once on day 4, oral, day 4
[5] = Arm A, 150 mg, day 11 of cycle 1, listed as N^32-desmethyl-Study drug
[6] = Arm A, 200 mg, day 11 of cycle 1
[7] = Arm B, 90 mg daily, Week 3 day 1 (Day 15)

C=CCn1c(=O)c2cnc(Nc3ccc(N4CCN(C)CC4)cc3)nc2n1-c1cccc(C(C)(C)O)n1 [AZD-1775, adavosertib, reference compound]
AUCInf, brain [1, 4]: 99.7 ng·h/g | AUCLast, brain [1, 4]: 94.5 ng·h/g | Cmax, brain [1, 4]: 53.9 ng/g | Kp at 72 h ([1]; male, Nu/Nu, mouse, po, 30 mg/kg, bid for 3 days and once on day 4, oral, day 4, read-out: Brain to plasma ratio based on AUCInf): 0.051 | Kp at 72 h ([1]; male, Nu/Nu, mouse, po, 30 mg/kg, bid for 3 days and once on day 4, oral, day 4, read-out: Brain to plasma ratio based on AUCLast): 0.048 | Kp at 72 h ([1]; male, Nu/Nu, mouse, po, 30 mg/kg, bid for 3 days and once on day 4, oral, day 4, read-out: Brain to plasma ratio based on Cmax): 0.043 | Cmax ([1]; male, Nu/Nu, mouse, plasma, po, 30 mg/kg, bid for 3 days and once on day 4, oral, day 4): 1260 ng/mL | AUC(0-inf) ([1]; male, Nu/Nu, mouse, plasma, po, 30 mg/kg, bid for 3 days and once on day 4, oral, day 4, read-out: AUCInf, plasma): 1960 ng·h/mL | AUC(0-t) ([1]; male, Nu/Nu, mouse, plasma, po, 30 mg/kg, bid for 3 days and once on day 4, oral, day 4, read-out: AUCLast, plasma): 1950 ng·h/mL

Cc1cc(Nc2ncc3c(n2)N(C)CN(c2c(Cl)cccc2Cl)C3=O)ccc1C1CCNCC1 [N^32-Desmethyl-Compound of formula (I)]
Mean brain:plasma ratio (±SD), at 24 h post last dose (n = 3) [2]: 0.73 ± 0.21 | Brain:plasma concentration ratio, at 24 h post last dose ([2]; individual animals): 0.49 and 0.81 and 0.88 | Plasma concentration at 24 h post last dose ([2]; individual animals): 531 ng/mL and 233 ng/mL and 365 ng/mL | Brain concentration at 24 h post last dose ([2]; left forebrain, individual animals): 258 ng/g tissue and 188 ng/g tissue and 323 ng/g tissue | CSF/plasma ratio ([3]; 4 patients, Arms A and B): about 5% | CSF concentration [3, 5]: 0.23 nmol/L and 0.26 nmol/L | CSF to “unbound plasma” ratio [3, 5]: 0.06 and 0.05 | Raw data concentration in CSF [3, 5]: 0.114 ng/mL and 0.128 ng/mL | Raw data concentration in plasma [3, 5]: 17.7 ng/mL and 15.6 ng/mL | Unbound plasma concentration [3, 5]: 4.59 nM and 4.05 nM | CSF concentration [3, 6]: 0.31 nmol/L | CSF to “unbound plasma” ratio [3, 6]: 0.05 | Raw data concentration in CSF [3, 6]: 0.154 ng/mL | Raw data concentration in plasma [3, 6]: 23.2 ng/mL | Unbound plasma concentration [3, 6]: 6.02 nM | CSF concentration [3, 7]: 0.61 nmol/L | CSF to “unbound plasma” ratio [3, 7]: 0.05 | Raw data concentration in CSF [3, 7]: 0.302 ng/mL | Raw data concentration in plasma [3, 7]: 42.8 ng/mL | Unbound plasma concentration [3, 7]: 11.10 nM | Active metabolite in plasma as share of Study drug parent ([3]; patient plasma): about 10% | Bound to plasma proteins (plasma proteins): 87.1%

C=CCn1c(=O)c2cnc(Nc3ccc(N4CCN(C)CC4)cc3)nc2n1-c1ccc2c(n1)[C@@](O)(CC)CC2 [Zn-c3, reference compound]
AUCInf, brain ([1]; mouse, in vivo, po, 80 mg/kg): 878 ng·h/g | AUCInf, plasma ([1]; mouse, in vivo, po, 80 mg/kg): 14180 ng·h/mL | AUCLast, brain ([1]; mouse, in vivo, po, 80 mg/kg): 396 ng·h/g | AUCLast, plasma ([1]; mouse, in vivo, po, 80 mg/kg): 14179 ng·h/mL | Brain to plasma ratio based on AUCInf ([1]; mouse, in vivo, po, 80 mg/kg): 0.062 | Brain to plasma ratio based on AUCLast ([1]; mouse, in vivo, po, 80 mg/kg): 0.028 | Brain to plasma ratio based on Cmax ([1]; mouse, in vivo, po, 80 mg/kg): 0.035 | Cmax, brain ([1]; mouse, in vivo, po, 80 mg/kg): 97.2 ng/g | Cmax, plasma ([1]; mouse, in vivo, po, 80 mg/kg): 2773 ng/mL
